The record followed here is patent US12018267B2, “Plants having increased tolerance to herbicides” (BASF SE, priority 2015, dated 2024).

The subject of assay [1] is wildtype Arabidopsis thaliana. The assay can be described thus: Greenhouse pre-emergent treatment of M3 Arabidopsis seeds, phytotox (injury) rating, wildtype. Format: in vivo. The settings on record: 21 days after treatment. Here is the method:
(§1) Additionally, M3 Arabidopsis seeds are tested for improved tolerance to CESA-inhibiting herbicides in greenhouse studies with azine compounds like e. g. N2-(4-chloro-3,5,6-trifluoro-2-pyridyl)-6-(1-fluorocyclopentyl)-1,3,5-triazine-2,4-diamine (Table E1-1, see also FIG. 3).

Assay [2] deals with transgenic Arabidopsis plants with wildtype or mutated cellulose synthase sequences (SEQ ID NO: 1 or 3). The assay can be described thus: 48-well plate growth inhibition of transgenic T2 Arabidopsis, relative tolerance rates versus non-transgenic (Table E2-1). The class given is in vivo, Arabidopsis thaliana. The settings on record: growth inhibition evaluated seven to ten days after seeding. The text has this: For transformation of Arabidopsis thaliana, wildtype or mutated cellulose synthase sequences encoding for one of the following protein sequences SEQ ID NO: 1 or 3, are cloned with standard cloning techniques as described in Sambrook et al. (Molecular cloning (2001) Cold Spring Harbor Laboratory Press) in a binary vector containing resistance marker gene cassette (AHAS) and mutated cellulose synthase sequence (marked as GOI) in between ubiquitin promoter (PcUbi) and nopaline synthase terminator (NOS) sequence. Binary plasmids are introduced to Agrobacterium tumefaciens for plant transformation. Arabidopsis thaliana are transformed with wildtype or mutated cellulose synthase sequences by floral dip method as described by McElver and Singh (WO 2008/124495). Transgenic Arabidopsis plants are subjected to TaqMan analysis for analysis of the number of integration loci.
Transgenic Arabidopsis thaliana plants (T2) are assayed for improved tolerance to azine herbicides like e. g. 6-cyclopentyl-N4-(2,3,4,5,6-pentafluorophenyl)-1,3,5-triazine-2,4-diamine in 48-well plates. Therefore, T2 seeds are surface sterilized by stirring for 5 min in ethanol+water (70+30 by volume), rinsing one time with ethanol+water (70+30 by volume) and two times with sterile, deionized water. The seeds are resuspended in 0.1% agar dissolved in water (w/v) Four to five seeds per well are plated on solid nutrient medium consisting of half-strength murashige skoog nutrient solution, pH 5.8 (Murashige and Skoog (1962) Physiologia Plantarum 15: 473-497). Compounds are dissolved in dimethylsulfoxid (DMSO) and added to the medium prior solidification (final DMSO concentration 0.1%). Multi well plates are incubated in a growth chamber at 22° C., 75% relative humidity and 110 μmol Phot*m^−2*s^−1 with 14:10 h light:dark photoperiod. Growth inhibition is evaluated seven to ten days after seeding in comparison to wild type plants. Tolerance factors are calculated based on IC50 values of growth inhibition of transformed versus non-transformed Arabidopsis plants.

In assay [3] the test system is At_CESA1_R292H (SEQ ID 1 - Variant R292H) M3 Arabidopsis plants. The assay can be described thus: Greenhouse pre-emergent treatment of M3 Arabidopsis seeds, phytotox (injury) rating, CESA1 R292H variant. The class given is in vivo, Arabidopsis thaliana. The settings on record: 21 days after treatment.
Description: For selection of cellulose biosynthesis inhibitor resistant plants EMS mutagenized seed populations of Arabidopsis thaliana are used. EMS mutagenized seed populations are either bought from Lehle Seeds (1102 South Industrial Blvd. Suite D, Round Rock, Texas USA) or are generated as described elsewhere (Heim D R, et al. (1989) Plant Physiol. 90: 146-150). Causative mutations in CESA wildtype sequences (e.g. SEQ ID NO: 1 or 3) are identified as described by Scheible W R et al. (2001, Proc. Natl. Acad. of Sci. 98: 10079-10084), McCourt et. al. (WO2013/142968) or with the use of next generation sequencing methods as described by Austin R S, et al. (2011) Plant Journal 67: 715-725.
as §1

Where [4] appears, read: Construct AtCesA1_G1031R, SEQ ID 1, variant G1031R.
[5] abbreviates: Construct AtCesA1_L1011A, SEQ ID 1, variant L1011A.
The mark [6] stands for this setting: Construct AtCesA1_R292H, SEQ ID 1, variant R292H.
Setting [7] is: Construct AtCesA1_V297M, SEQ ID 1, variant V297M.
Where [8] appears, read: Construct AtCesA1_wt, SEQ ID 1, no variant.
Setting [9] is: Construct AtCesA3_F1039L, SEQ ID 3, variant F1039L.
[10] abbreviates: Construct AtCesA3_wt, SEQ ID 3, no variant.

As to `Nc1nc(Nc2nc(F)c(F)c(Cl)c2F)nc(C2(F)CCCC2)n1` [N2-(4-chloro-3,5,6-trifluoro-2-pyridyl)-6-(1-fluorocyclopentyl)-1,3,5-triazine-2,4-diamine], the phytotox value in assay [1] (0.5 g ai/ha) turned out to be 60; in assay [1] (1 g ai/ha) it was 65; in assay [1] (2 g ai/ha), 98; in assay [1] (4 g ai/ha), 100; in assay [3] (At_CESA1_R292H event A, 0.5 g ai/ha), 10; in assay [3] (At_CESA1_R292H event A, 1 g ai/ha) it was 10. Besides, the phytotox value in assay [3] (At_CESA1_R292H event A, 2 g ai/ha) is recorded as 45; in assay [3] (At_CESA1_R292H event A, 4 g ai/ha) it was 94; in assay [3] (At_CESA1_R292H event B, 0.5 g ai/ha), 5; in assay [3] (At_CESA1_R292H event B, 1 g ai/ha), 0; in assay [3] (At_CESA1_R292H event B, 2 g ai/ha), 17.5; in assay [3] (At_CESA1_R292H event B, 4 g ai/ha) it was 87.5. Further, the “Relative tolerance rate of transgenic Arabidopsis plants as compared to non-transgenic (non-transgenic = 1.0)” value (shortened to “Relative tolerance rate … (non-transgenic = 1.0)”) in assay [2] (setting [4]) stood at 3; in assay [2] (setting [5]) it was 1; in assay [2] (setting [6]), 1; in assay [2] (setting [7]), 1; in assay [2] (setting [8]) it was 2; in assay [2] (setting [9]), 1. Moreover, the “Relative tolerance rate … (non-transgenic = 1.0)” value in assay [2] (setting [10]) amounted to 1.

Consider `NC(=O)c1nc(-c2ccccc2)n(-c2ccc(Cl)c(COCC(F)(F)C(F)(F)F)c2)n1` [1-[4-chloro-3-(2,2,3,3,3-pentafluoropropoxymethyl)phenyl]-5-phenyl-1,2,4-triazole-3-carboxamide, reference compound], for which the phytotox value in assay [1] (7.8 g ai/ha) turned out to be 12.5; in assay [1] (31.25 g ai/ha), 99; in assay [1] (125 g ai/ha), 100; in assay [1] (250 g ai/ha) it was 100; in assay [3] (At_CESA1_R292H event A, 7.8 g ai/ha), 7.5; in assay [3] (At_CESA1_R292H event A, 31.25 g ai/ha), 80. Also, the phytotox value in assay [3] (At_CESA1_R292H event A, 125 g ai/ha) amounted to 100; in assay [3] (At_CESA1_R292H event A, 250 g ai/ha), 100; in assay [3] (At_CESA1_R292H event B, 7.8 g ai/ha), 25; in assay [3] (At_CESA1_R292H event B, 31.25 g ai/ha), 52.5; in assay [3] (At_CESA1_R292H event B, 125 g ai/ha), 100; in assay [3] (At_CESA1_R292H event B, 250 g ai/ha) it was 100. Besides, the “Relative tolerance rate … (non-transgenic = 1.0)” value in assay [2] (setting [5]) is 7; in assay [2] (setting [9]), 3.

In the case of `Cc1cccc(-n2nc(C(N)=O)nc2-c2ccccc2)c1`, the “Relative tolerance rate … (non-transgenic = 1.0)” value in assay [2] (setting [4]) is reported as 13; in assay [2] (setting [6]), 31; in assay [2] (setting [7]), 5; in assay [2] (setting [8]), 3; in assay [2] (setting [10]), 4.
